Experimental findings from patent US9568483B2, “Molecular subtyping, prognosis and treatment of prostate cancer” (CORNELL UNIVERSITY, priority 2011, dated 2017) are described below.

“Also recorded” adds a separate entry of the source.

In series [1] the test system is LNCaP-n-Myc cells. Briefly: WST-1 viability assay, LNCaP cells stably transfected with MYCN. The series is classed as cell-based. To be noted: compared to control LNCaP cells (LNCaP-EV); 72 hours; FIG. 4A. On the procedure:
(§1) Drug Treatment. PHA-739358 was obtained from Nerviano Medical Sciences (Milan, Italy) in powder form (MW 414.36). Prostate cell lines for this study were obtained from the American Type Culture Collection (Manassas, Va.). RWPE (20×10^3 per well), NCI-H660 (20×10^3), DU145 (5×10^3 per well), VCaP (20×10^3 per well) and LNCaP (1.5×10^4 per well) cells were seeded on 96-well-tissue culture plates. At 24 hours, cell lines were treated with vehicle (0.5% DMSO) or escalating doses of PHA-739358 (5 nM, 50 nM, 100 nM, 500 nM, 1 uM, 5 uM). At 48 hr, 72 h, 96 h, and 120 h, viability was assessed by performing WST-1 assay (Roche, Indianapolis, Ind.) reading absorbance at 450 nm according to the manufacturer's instructions. Xenografts were prepared by injection of 1 million NCI-H660 cells, VCaP cells, or LNCaP cells into NU/J mice (Jackson Laboratories, Bar Harbor, Me.). LTL-362 xenografts were established at BC Cancer Center Living Tumor Laboratory as previously described (TUNG et al., Prostate (2010)). 3×3×2 mm2 tissue fragments were subcutaneously engrafted into fourteen 6-8 week old NOD/SCID mice. All xenograft tumors were allowed to grow to an average tumor weight of 100 mm^3. […] Mice were sacrificed on day 17, and tumors were evaluated for weight, gross pathology, histology, and IHC. […]
On the technique in general: Tetrazolium assays rely on reduction of a dye to a coloured formazan, in cell work by metabolically active cells.

The test system of series [2] is NCI-H660 cells. Briefly: WST-1 viability assay, NCI-H660. The series is classed as cell-based, human. To be noted: compared to two PCA cell lines (DU145, VCaP) and benign RWPE-1 cells; 72 hours; FIG. 4B. On the procedure: as §1
Series [3] has as its system LNCaP cells. Briefly: Cell cycle FACS analysis, LNCaP. To be noted: 48 hrs treatment. The series is classed as cell-based. On the procedure: (§2) Cell Cycle Analysis. Cells were treated with PHA-739358 for 48 hrs. After treatment, cells were washed with cold PBS and fixed in 70% EtOH at −20° C. overnight. Cells were washed and suspended in 500 μl PBS containing 0.1% Triton X-100, 20 μg/ml Propidium Iodide (PI) and 200 μg/ml RNase A, incubated for 30 min at room temperature and subjected to FACS analysis using a LSR II Analyzer (BD Biosciences).
Background: In flow cytometry, cells or beads pass a laser one at a time.

Series [4] has as its system LNCaP-MYCN cells. The series is described as follows: Cell cycle FACS analysis, LNCaP-MYCN. In kind it is cell-based. To be noted: 48 hrs treatment. On the procedure: as §2
For series [5], the system named is NCI-H660 cells. Briefly: Cell cycle FACS analysis, NCI-H660. In kind it is cell-based, human. To be noted: 48 hrs treatment. The procedure:
as §2

Series [6] has as its system NCI-H660 xenografts. The series is described as follows: NCI-H660 xenograft study. The series is classed as in vivo, NU/J mice. On the procedure: Drug Treatment. PHA-739358 was obtained from Nerviano Medical Sciences (Milan, Italy) in powder form (MW 414.36). Prostate cell lines for this study were obtained from the American Type Culture Collection (Manassas, Va.). RWPE (20×10^3 per well), NCI-H660 (20×10^3), DU145 (5×10^3 per well), VCaP (20×10^3 per well) and LNCaP (1.5×10^4 per well) cells were seeded on 96-well-tissue culture plates. At 24 hours, cell lines were treated with vehicle (0.5% DMSO) or escalating doses of PHA-739358 (5 nM, 50 nM, 100 nM, 500 nM, 1 uM, 5 uM). At 48 hr, 72 h, 96 h, and 120 h, viability was assessed by performing WST-1 assay (Roche, Indianapolis, Ind.) reading absorbance at 450 nm according to the manufacturer's instructions. Xenografts were prepared by injection of 1 million NCI-H660 cells, VCaP cells, or LNCaP cells into NU/J mice (Jackson Laboratories, Bar Harbor, Me.). LTL-362 xenografts were established at BC Cancer Center Living Tumor Laboratory as previously described (TUNG et al., Prostate (2010)). 3×3×2 […] tissue fragments were subcutaneously engrafted into fourteen 6-8 week old NOD/SCID mice. All xenograft tumors were allowed to grow to an average tumor […] of 100 mm^3. 20 LNCaP, 20 VCaP, 40 NCI-H660, 14 LTL-362 mice were randomized to treatment with PHA-739358 at 30 mg/kg intraperitoneal dosing on days 1-5 or vehicle. Body weight, tumor volume based on caliper measurements ([…]) and luciferase imaging were performed every 3 or 4 days after treatment. Mice were sacrificed on day 17, and tumors were evaluated for weight, gross pathology, histology, and IHC. Three tumors were processed during treatment (on day 4) to evaluate for phosphorylated histone 3 expression by IHC.
(§3) Immunohistochemistry (IHC). […] IHC was quantified on scale 0-3 and overexpression was defined as any staining intensity seen of target cells above background (similar methodology as was used in PARK et al., Neoplasia, 12:590-8 (2010)).
(§4) Xenografts. […] Mice were sacrificed on day 17, and tumors were evaluated for weight, gross pathology, histology, and IHC. […]

In series [7] the test system is LTL-352 xenograft. Briefly: LTL-352 xenograft study. In kind it is in vivo, NOD/SCID mice. To be noted: LTL-352 xenografts; 30 mg/kg IP BID, 5 days; P<0.001. The procedure: as §1, with “(2010)).” for “(2010)). 3×3×2 mm2 tissue fragments were subcutaneously engrafted into fourteen 6-8 week old NOD/SCID mice. All xenograft tumors were allowed to grow to an average tumor weight of 100 mm^3.”
(§5) Xenografts. […] Mice were sacrificed on day 17, and tumors were evaluated for weight, gross pathology, histology, and IHC. […] Analysis was performed using LivingImage software (Xenogen) by measurement of the average photon flux (measured in photons/s/cm2/steradian) within a region of interest.

The test system of series [8] is LNCaP xenografts. Briefly: LNCaP xenograft study. In kind it is in vivo, NU/J mice. On the procedure: as §1, with “Me.).” for “Me.). LTL-362 xenografts were established at BC Cancer Center Living Tumor Laboratory as previously described (TUNG et al., Prostate (2010)). 3×3×2 mm2 tissue fragments were subcutaneously engrafted into fourteen 6-8 week old NOD/SCID mice. All xenograft tumors were allowed to grow to an average tumor weight of 100 mm^3.”
as §3, §4

Series [9] concerns VCaP xenografts. Briefly: VCaP xenograft study. The series is classed as in vivo, NU/J mice. To be noted: 30 mg/kg intraperitoneal, days 1-5. On the procedure: as §1, with “(2010)).” for “(2010)). 3×3×2 mm2 tissue fragments were subcutaneously engrafted into fourteen 6-8 week old NOD/SCID mice. All xenograft tumors were allowed to grow to an average tumor weight of 100 mm^3.”
as §5

The conditions of series [10]: mouse, in vivo, ip, 30 mg/kg. The procedure: as §1, with “(2010)).” for “(2010)). 3×3×2 mm2 tissue fragments were subcutaneously engrafted into fourteen 6-8 week old NOD/SCID mice. All xenograft tumors were allowed to grow to an average tumor weight of 100 mm^3.”
as §5

Regarding `CO[C@@H](C(=O)N1Cc2n[nH]c(NC(=O)c3ccc(N4CCN(C)CC4)cc3)c2C1)c1ccccc1` [PHA-739358], the “in vitro sensitivity (viability)” value in [1] is on record as “enhanced in vitro sensitivity”. Further, the “sensitivity (viability)” value in [2] is on record as “enhanced sensitivity”. Besides, the Polyploidy entry in series [3], in series [4] and in series [5] was “induced” throughout. In addition, the G2/M arrest entry in [3] (FIG. 5) is recorded as “dose dependent G2/M arrest”; in series [4] (FIG. 5), “dose dependent G2/M arrest”; in series [5] (FIG. 5), “no significant G2/M arrest”. The average tumor shrinkage in [6] (NCI-H660 xenografts, 30 mg/kg IP BID, 5 days, P<0.001) is given as 50-87%; in series [7], 50-87%. Also, the “SYP (synaptophysin) expression (IHC)” value in series [6] (treated NCI-H660 xenografts, FIG. 4F) is “negative; also recorded: completely suppressed”. Also, the “Phosphorylated histone 3 expression (IHC)” value in series [6] (treated NCI-H660 xenografts, day 4 of treatment) is recorded as “significantly inhibited”; in series [8] (treated LNCaP xenografts, day 4 of treatment), “not in the LNCaP xenografts”. Besides, the “effect on tumor size” value is listed as “no effect” in series [8] (LNCaP xenografts, 30 mg/kg IP BID, 5 days) and “cytostatic effect” in series [9]. In series [10], the “toxicity as determined by body weight” value is “without significant toxicity”.
